Assay results from paper PMC12040169 (PLOS Biology, 2025).

Experiment: in vitro
Settings: human, hela cells, % viability

| Compound | viability at 28.5 h, 10 µM |
| --- | --- |
| COc1ccccc1CC(=O)Nc1ccc(OCC(=O)O)cc1 [CBK264194] | 99.1% |
| Cc1ccccc1OCCNS(=O)(=O)c1cccc([N+](=O)[O-])c1 [CBK264195] | 106% |
| O=C(c1ccncc1)N1CCN(S(=O)(=O)c2ccccc2[N+](=O)[O-])CC1 [CBK264196] | 92.6% |
| CN1CCN(CCC(=O)Nc2ccc3c(c2)CCC3)CC1 [CBK264197] | 95.3% |
| Cc1ccc(S(=O)(=O)N(C)CC(=O)N(C)Cc2ccccc2)cc1 [CBK264201] | 95.5% |
| O=C(CCN1CCc2ccccc2C1)Nc1ccccc1F [CBK264202] | 94.9% |
| COc1ccc(CN2CCN(S(=O)(=O)c3ccc(Cl)cc3)CC2)cc1OC [CBK264204G] | 104% |
| COc1cccc(NC(=O)CCN2CCN(CCO)CC2)c1 [CBK264207C] | 88.3% |
| O=C(c1cccnc1)N1CCN(S(=O)(=O)c2ccc(F)cc2)CC1 [CBK264210] | 92.8% |
| COc1ccc(OCC(=O)N2CCN(S(=O)(=O)c3ccccc3[N+](=O)[O-])CC2)cc1 [CBK264213] | 93.5% |
| Cc1ccc(S(=O)(=O)Nc2ccccc2CNc2ccc(Br)cc2)cc1 [CBK264214] | 94.5% |
| O=C(O)CCC(=O)Nc1ccc(OC(F)F)cc1 [CBK264222] | 99.8% |
| Cc1c(C(=O)NC(=S)Nc2ccc(O)c(-c3nc4ccccc4s3)c2)oc2ccccc12 [CBK264223] | 93.2% |
| COc1ccc(CN2CCN(Cc3ccco3)CC2)cc1OCc1ccccc1 [CBK264225] | 105% |
| O=C(O)c1ccc(S(=O)(=O)c2ccc3c(c2)C(=O)N(NC(=O)c2ccc(O)cc2)C3=O)cc1 [CBK264229] | 102% |
| CC(=O)Nc1ccc(S(=O)(=O)N2CCN(Cc3ccc([N+](=O)[O-])cc3)CC2)cc1 [CBK264231G] | 94.3% |
| Cc1cc2nc(SCc3nc4ccccc4[nH]3)[nH]c2cc1C [CBK264233] | 97.4% |
| O=[N+]([O-])c1ccccc1S(=O)(=O)N1CCN(S(=O)(=O)c2ccc(F)cc2)CC1 [CBK264236] | 92.7% |
| c1ccc(CCCN2CCN(Cc3cccc4ccccc34)CC2)cc1 [CBK264237] | 103% |
| COc1ccc(CC(=O)Nc2ccc(OCC(=O)O)cc2)cc1 [CBK264244] | 103% |
| COc1ccc(N2CCN(c3nc(OC)nc(OC)n3)CC2)cc1 [CBK264245] | 100% |

| Compound | viability at 28.5 h, 10 µM |
| --- | --- |
| COc1cc(/C=N/n2cnnc2)ccc1OCc1cccc(C(=O)O)c1 [CBK264249] | 108% |
| O=C(O)COc1ccc(NC(=O)C(c2ccccc2)c2ccccc2)cc1 [CBK264250] | 99.6% |
| CCOC(=O)C1CCN(CCC(=O)Nc2ccc(F)c(F)c2)CC1 [CBK264252] | 112% |
| CC(C)CC(C(=O)Nc1ccc(Br)cc1)N1C(=O)c2ccccc2C1=O (stereo not drawn) [CBK264253] | 94.1% |
| COc1ccccc1N1CCN(CCC(=O)Nc2cccc(F)c2)CC1 [CBK264254C] | 92.8% |
| CCc1ccc(-n2nc3ccc(NC(=S)NC(=O)c4cc5ccccc5o4)cc3n2)cc1 [CBK264258] | 101% |
| O=C(O)COc1ccc(N2C(=O)c3ccc(Oc4cccc([N+](=O)[O-])c4)cc3C2=O)cc1 [CBK264259] | 107% |
| O=C(CCN1CCN(Cc2ccccc2)CC1)Nc1ccc(F)cc1 [CBK264261] | 77% |
| CCOC(=O)c1c(NC(=O)C2CC(Cl)=CCC2C(=O)O)sc2c1CCCCC2 (stereo not drawn) [CBK264263] | 90.2% |
| C(=C\CSC1=NCCN1)/CSC1=NCCN1 [CBK264266] | 107% |
| Cc1ccc(OCC(=O)N2CCN(S(=O)(=O)c3ccc([N+](=O)[O-])cc3)CC2)cc1 [CBK264267] | 103% |
| COc1cc(CN2CCN(S(=O)(=O)c3ccc(F)cc3)CC2)cc(OC)c1O [CBK264269G] | 103% |
| CCC(C)N1CCN(S(=O)(=O)c2ccccc2[N+](=O)[O-])CC1 (stereo not drawn) [CBK264270G] | 97.2% |
| CC(=O)Nc1ccc(S(=O)(=O)N2CCN(S(=O)(=O)c3ccc(C)cc3)CC2)cc1 [CBK264276] | 101% |
| CC(C)COc1ccc(-c2nn(-c3ccccc3)cc2CSC(=N)N)cc1 [CBK264278C] | 0.298% |
| CCS(=O)(=O)N1CCN(Cc2ccccc2OC)CC1 [CBK264280G] | 92.7% |
| CC(OC(=O)c1ccc(O)cc1)C(=O)Nc1ccc(Cl)c(Cl)c1 (stereo not drawn) [CBK264281] | 96.4% |
| CCOC(=O)C1CCCN(CCC(=O)Nc2cc(C)ccc2C)C1 (stereo not drawn) [CBK264287C] | 95.7% |
| CCCS(=O)(=O)N1CCN(C(=O)COc2ccc3ccccc3c2)CC1 [CBK264290] | 95.4% |
| COc1ccc(NC(=S)NCCCN(C)C)cc1 [CBK264292] | 96.2% |
| O=C(/C=C/c1ccc(Cl)cc1Cl)NCCNc1c(Cl)cccc1[N+](=O)[O-] [CBK264295] | 110% |

| Compound | viability at 28.5 h, 10 µM |
| --- | --- |
| O=[N+]([O-])c1ccccc1S(=O)(=O)N1CCN(S(=O)(=O)c2ccc3ccccc3c2)CC1 [CBK264296] | 107% |
| O=C(c1cccnc1)N1CCN(S(=O)(=O)c2ccc([N+](=O)[O-])cc2)CC1 [CBK264300] | 92.5% |
| Cc1ccc(C(=O)C(C)OC(=O)c2ccc(NC(=O)c3ccccc3)cc2)cc1 (stereo not drawn) [CBK264302] | 100% |
| COc1ccc(C2NCCc3c2[nH]c2ccccc32)cc1CSc1nc2ccccc2s1 (stereo not drawn) [CBK264303C] | 96.8% |
| O=C(CSc1ccc(Cl)cc1)OCC(=O)c1ccccc1 [CBK264306] | 106% |
| O=C(O)CCC(C(=O)O)N1C(=O)c2c(Cl)c(Cl)c(Cl)c(Cl)c2C1=O (stereo not drawn) [CBK264308] | 102% |
| O=[N+]([O-])c1ccc(S(=O)(=O)N2CCN(S(=O)(=O)c3ccc(Cl)cc3)CC2)cc1 [CBK264312] | 118% |
| CC(=O)Nc1ccc(S(=O)(=O)N2CCN(S(=O)(=O)c3ccccc3[N+](=O)[O-])CC2)cc1 [CBK264314] | 104% |
| N/C(Cc1ccc(Cl)cc1Cl)=N\OC(=O)c1cccc([N+](=O)[O-])c1 [CBK264317] | 91% |
| O=C(NCc1ccncc1)Nc1ccc([N+](=O)[O-])cc1 [CBK264319] | 110% |
| Cc1cc(OCC(=O)Nc2nc[nH]n2)ccc1Cl [CBK264321] | 117% |
| Cc1cc(OCC(=O)O/N=C(\N)Cc2ccc([N+](=O)[O-])cc2)ccc1Cl [CBK264322] | 98.2% |
| O=C(C1CCN(Cc2ccc(F)cc2)CC1)N1CCN(C/C=C/c2ccccc2)CC1 [CBK264325G] | 96.5% |
| C/C(=C\c1ccccc1)CN1CCC(C(=O)N2CCN(Cc3ccc4c(c3)OCO4)CC2)CC1 [CBK264327] | 94.1% |
| O=C(/C=C/c1ccccc1)Oc1cccc(NC(=O)C2CC(=O)N(c3ccccc3)C2)c1 (stereo not drawn) [CBK264330] | 109% |
| CC1=CC(c2ccc(Cl)cc2)n2nc(NC(=O)CCC(=O)O)nc2N1 (stereo not drawn) [CBK264331] | 100% |
| OC(CN1CCN(c2cccc(Cl)c2)CC1)Cn1c2ccccc2c2ccccc21 (stereo not drawn) [CBK264333] | 98.2% |
| O=C(O)CNS(=O)(=O)c1ccc2nc(O)c(O)nc2c1 [CBK264334] | 94.4% |
| COc1ccc(C(=O)NCCc2ccc(S(N)(=O)=O)cc2)cc1[N+](=O)[O-] [CBK264335] | 99.8% |
| Cc1ccc(NC(=S)NC(=O)Cc2ccccc2)c(O)c1 [CBK264337] | 106% |
| NS(=O)(=O)c1ccc(NC(=O)c2ccc3ccccc3c2)cc1 [CBK264338] | 112% |

| Compound | viability at 28.5 h, 10 µM |
| --- | --- |
| CC(C)(C)c1ccc(Oc2ccc(NC(=O)CCCC(=O)O)cc2)cc1 [CBK264339] | 103% |
| COC(=O)c1ccc(N2CCN(C)CC2)c([N+](=O)[O-])c1 [CBK264341] | 99.4% |
| O=C(NC(=S)Nc1ccc2oc(-c3ccncc3)nc2c1)c1cc(Br)ccc1Cl [CBK264343] | 87.8% |
| O=C(/C=C/c1ccco1)NC(=S)Nc1ccc(O)c(-c2nc3ccccc3s2)c1 [CBK264344] | 85.7% |
| O=C(CSc1nnc(-c2ccncc2)[nH]1)c1ccc(O)c(O)c1 [CBK264346] | 86.6% |
| CCC(C)c1ccc(NC(=O)CSc2nc3cccnc3[nH]2)cc1 (stereo not drawn) [CBK264349] | 86.9% |
| O=CN1CCN(S(=O)(=O)c2ccc3c(c2)Cc2cc(S(=O)(=O)N4CCN(C=O)CC4)ccc2-3)CC1 [CBK264351] | 98.8% |
| O=C(CSc1nnc(-c2ccncc2)[nH]1)c1ccc(O)cc1O [CBK264353] | 102% |
| NS(=O)(=O)c1ccc(CNC(=O)C(Sc2ccccc2)c2ccccc2)cc1 (stereo not drawn) [CBK264355] | 91.5% |
| Cn1c(SCC(=O)c2ccccc2)nnc1-c1ccc(NC(=O)c2ccccc2Cl)cc1 [CBK264357] | 95% |
| Cc1cccc(NC(=O)C2CC(=O)N=C(Nc3nc4ccccc4s3)N2)c1 (stereo not drawn) [CBK264362] | 108% |
| CN(CC(=O)OCC(=O)c1ccccc1)S(=O)(=O)c1ccc(Cl)cc1 [CBK264363] | 105% |
| CN(C)S(=O)(=O)NCc1ccc2c(c1)OCO2 [CBK264364] | 108% |
| Cc1ccc(C(=O)/C=C(\Nc2cccc(C(F)(F)F)c2)C(=O)O)cc1 [CBK264366] | 101% |
| NS(=O)(=O)c1ccc(CCNS(=O)(=O)c2ccccc2[N+](=O)[O-])cc1 [CBK264369] | 111% |
| Cc1ccc2nc(SCc3cccc([N+](=O)[O-])c3)nc(C)c2c1 [CBK264370] | 106% |
| O=C(/C=C/c1ccco1)NC(=S)Nc1ccccc1[N+](=O)[O-] [CBK264375] | 117% |
| O=C(/C=C/c1cccc([N+](=O)[O-])c1)NC(=S)Nc1ccc(-c2nc3ccccc3[nH]2)cc1 [CBK264376] | 102% |

Same assay, conditions: human, hela cells, % viability, bulk resorufin, single well

| Compound | viability at 28.5 h, 10 µM |
| --- | --- |
| O=C1NC(=S)N(c2ccccc2)C(=O)/C1=C\c1ccc(OCc2ccccc2)c(C(=O)O)c1 [CBK264265] | 99.1% |
| Cc1cc(/C=C2\C(=O)NC(=O)N(C)C2=O)c(C)n1-c1ccc(Oc2ccc([N+](=O)[O-])cn2)cc1 [CBK264294] | 100% |
| CN1CCN(c2ccc(C=C3C(=O)NC(=S)NC3=O)o2)CC1 [CBK264367] | 98.6% |
